From patent US10228378B2, “Diagnostic and therapeutic methods and products related to anxiety disorders” (The University of Vermont and State Agricultural College, priority 2011, dated 2019)
Where “and” joins values, the source holds several entries; their conditions need not be identical. Equal values may be shown once. Entries after “also recorded” stand apart in the source; their conditions may differ. No end group written: not given here.

Tests used:
[1] = tested on: ADCYAP1 transcripts; experiment: Quantitative PCR of ADCYAP1 transcripts in BNST of ovarectomized female rats after estradiol implants; assay type: in vivo, rat; conditions: OVX female rats, 21-day continuous release pellets, vs control implants
Text: (§1) To establish the relationship between PACAP/PAC1 receptors and estrogen in a validated model of sex hormone regulation, estrogen-induced changes in ADCYAP1 and ADCYAP1R1 transcripts in the bed nucleus of stria terminalis (BNST) in female rats was examined. The BNST is a component of the extended amygdala that is subject to significant gonadal hormonal control. In rodents, it is critical for emotional behavior, mediating stress responses and the light-enhanced startle response. Quantitative PCR was performed (Hammack et al., Psychoneuroendocrinology 34, 833-43 (2009); Girard et al., J Neurochem 99(2): 499-513 (2006); Braas et al., Peptides September 28(9):1856-70 (2007)). Rats were implanted with 21-day continuous release pellets for delivery of estrogen. After rat euthanasia, the different brain regions were quickly dissected and frozen on dry ice. The tissues were homogenized in Stat-60 total RNA/mRNA isolation reagent (Tel-Test “B”, Friendswood, Tex.). […] Real-time quantitative PCR methods and oligonucleotide primers were exactly as described previously. The melting profiles for amplified DNA fragments were performed to verify unique product amplification in the quantitative PCR assays. […]

[2] = tested on: ADCYAP1R1 transcripts; experiment: Quantitative PCR of ADCYAP1R1 transcripts in BNST of ovarectomized female rats after estradiol implants; assay type: in vivo, rat; conditions: OVX female rats, 21-day continuous release pellets, vs control implants
Text: as §1

[3] = tested on: Sprague-Dawley rats; experiment: Elevated plus maze after acute BNST PACAP38 infusion; assay type: in vivo, rat; conditions: BNST infusion 1 μg/0.5 μl vs vehicle
Text: For acute infusion studies, rats were anesthetized with isoflurane vapor and secured in a stereotaxic apparatus. After skin incision, the skull was exposed and four screws were inserted to provide skullcap stability. Two stainless steel cannulae (26 gauge, Plastics One, Roanoke, Va.) were lowered at a 20 degree angle just above the anterolateral bed nucleus of the stria terminalis (BNST), from bregma in mm; AP=−0.3, ML=±3.8 and DV=−5.3 from the surface of the dura. A skullcap was created with dental cement to hold the cannulae in place. […]
(§2) A plus maze of black painted wood and elevated 74 cm from the floor consisted of two opposing open and two opposing closed arms (each arm 60 cm long and 9 cm wide), which extended perpendicularly from a central square platform (9×9 cm). […] The sessions were captured digitally, and the time spent in the open and closed arms and the total number of crosses into the open arms were scored. […]
To further characterize the behavioral consequences of BNST PACAP38 infusion, rats were implanted with bilateral cannulae targeted at the BNST. […] Consistent with an anxiogenic effect of BNST PACAP on baseline acoustic startle responding, BNST PACAP38 infusion was anxiogenic on the elevated-plus maze as measured by open arm time (FIG. 12A, df=8, t=3.3, p=0.01).

[4] = Body weight after acute BNST PACAP38 infusion; assay type: in vivo, rat; conditions: 24 hours after BNST infusion
Text: For acute infusion studies, rats were anesthetized with isoflurane vapor and secured in a stereotaxic apparatus. After skin incision, the skull was exposed and four screws were inserted to provide skullcap stability. Two stainless steel cannulae (26 gauge, Plastics One, Roanoke, Va.) were lowered at a 20 degree angle just above the anterolateral bed nucleus of the stria terminalis (BNST), from bregma in mm; AP=−0.3, ML=±3.8 and DV=−5.3 from the surface of the dura. A skullcap was created with dental cement to hold the cannulae in place. One week after cannulation, the rats were acutely infused bilaterally into the BNST with PACAP38 (American Peptide Co., Sunnyvale, Calif.; 0.1, 0.5 or 1 μg in 0.5 μl) or saline/bovine serum albumin (BSA) vehicle; the infusion cannulae were left in place for 1 min before removal.
To further characterize the behavioral consequences of BNST PACAP38 infusion, rats were implanted with bilateral cannulae targeted at the BNST. One week following implantation, rats received BNST infusions of PACAP38 (1 μg/0.5 μl) or vehicle, and were tested for anxiety-like responses. Consistent with an anxiogenic effect of BNST PACAP on baseline acoustic startle responding, BNST PACAP38 infusion was anxiogenic on the elevated-plus maze as measured by open arm time (FIG. 12A, df=8, t=3.3, p=0.01).

[5] = tested on: Sprague-Dawley rats; experiment: Elevated plus-maze after chronic BNST PACAP(6-38) infusion during repeated variate stress; assay type: in vivo, rat
Method: Similar procedures were followed for chronic infusions. Once the BNST cannulae (Plastics One, Roanoke, Va.; No. 328OP/SPC) and skullcap were in place, the cannulae were attached to a single bifurcation connector (Plastics One, Roanoke, Va.; No. 21y) using 3 mm catheter tubing (Alzet, Cupertino, Calif.: OC 1.14 mm, ID 0.69 mm). The bifurcation connector was attached to 6.7 cm of catheter tubing attached to a mini-osmotic pump (Alzet, Cupertino, Calif.; No. 2002, 200 μl volume, 0.5 μl/h) containing either antagonist PACAP(6-38) (American Peptide Co., Sunnyvale, Calif.; 75 μM) or vehicle (0.05% BSA in saline). Long term PACAP(6-38) stability at 37° C. was assessed separately by daily aliquot removal for intact and amidated peptide radioimmunoassays. Peptide loss was 4%/day; final minipump PACAP(6-38) concentration at the end of the study was approximately 40 μM. […] The rats were returned to their home cages for 6 day postsurgical recovery; all rats were monitored for food/water intake and weighed daily. […]
as §2

[6] = tested on: Sprague-Dawley rats; experiment: Novel object exploration test after chronic BNST PACAP(6-38) infusion during repeated variate stress; assay type: in vivo, rat; conditions: for effect on stress induced anxiety-related responses, novel object test: chronic BNST infusion, stressed rats
Method: (§3) Similar procedures were followed for chronic infusions. Once the BNST cannulae (Plastics One, Roanoke, Va.; No. 328OP/SPC) and skullcap were in place, the cannulae were attached to a single bifurcation connector (Plastics One, Roanoke, Va.; No. 21y) using 3 mm catheter tubing (Alzet, Cupertino, Calif.: OC 1.14 mm, ID 0.69 mm). The bifurcation connector was attached to 6.7 cm of catheter tubing attached to a mini-osmotic pump (Alzet, Cupertino, Calif.; No. 2002, 200 μl volume, 0.5 μl/h) containing either antagonist PACAP(6-38) (American Peptide Co., Sunnyvale, Calif.; 75 μM) or vehicle (0.05% BSA in saline). Long term PACAP(6-38) stability at 37° C. was assessed separately by daily aliquot removal for intact and amidated peptide radioimmunoassays. Peptide loss was 4%/day; final minipump PACAP(6-38) concentration at the end of the study was approximately 40 μM. All catheters were filled with vehicle to delay antagonist infusion into the BNST before the repeated variate stress procedure. The minipumps were primed according to manufacturer's instructions and secured subcutaneously in the interscapular space. The rats were returned to their home cages for 6 day postsurgical recovery; all rats were monitored for food/water intake and weighed daily.
Following acclimation or postsurgery recovery, each animal was randomly assigned to either a control or chronically stressed group. Control group animals remained in their home cages until euthanasia. […]
To determine whether BNST PACAP receptor signaling mediates the behavioral consequences of repeated stress, osmotic minipumps were attached to bilateral indwelling cannulae to chronically infuse the BNST with PACAP(6-38), a PAC1 receptor antagonist, during the seven day repeated variate stress procedure (see above, FIG. 13A). Animal weight and food intake were monitored daily during the entire duration of the experiment, and the animals were evaluated on the elevated plus-maze and novel-object exploration tests 24-48 hours after the last stressor exposure. […]

[7] = Body weight during chronic BNST PACAP(6-38) infusion and repeated variate stress; assay type: in vivo, rat
Method: as §3, with “The minipumps were primed according to manufacturer's instructions and secured subcutaneously in the interscapular space.” left out, “daily. […]” for “daily.”
Weight data were analyzed using a 2×2×7 mixed ANOVA with stress and antagonist treatment as between subjects variables and percent weight change during the stress period as within subjects variables. […]

[8] = Long term PACAP(6-38) stability at 37° C. by radioimmunoassay; assay type: physicochemical
Method: as §3

[9] = chronic BNST infusion by minipump (75 μM, 0.5 μl/h), stressed and non-stressed rats

C[C@]12CC[C@@H]3c4ccc(O)cc4CC[C@H]3[C@@H]1CC[C@@H]2O [estradiol]
increase of ADCYAP1 transcripts, dorsal BNST [1]: 2.1 fold | increase of ADCYAP1 transcripts, ventral BNST [1]: 3.4 fold | increase of ADCYAP1R1 mRNA, dorsal BNST [2]: 1.5 fold and 1.6 fold

PACAP38: 38-amino acid peptide form of PACAP (American Peptide Co.) (HSDGIFTDSYSRYRKQMAVKKYLAAVLGKRYKQRVKNK; ends and bridges not checked)
anxiety-like behavior on elevated-plus maze as measured by open arm time [3]: anxiogenic; also recorded: decreased open arm times | locomotor activity as measured by total number of arm entries [3]: not affected; also recorded: not changed | weight loss compared to vehicle-infused rats [4]: significantly more weight loss | weight loss ([4]; compared to vehicle controls): approximately 8 % of body weight

Phe-Thr-Asp-Ser-Tyr-Ser-Arg-Tyr-Arg-Lys-Gln-Met-Ala-Val-Lys-Lys-Tyr-Leu-Ala-Ala-Val-Leu-Gly-Lys-Arg-Tyr-Lys-Gln-Arg-Val-Lys-Asn-Lys (FTDSYSRYRKQMAVKKYLAAVLGKRYKQRVKNK) [PACAP(6-38)]
anxiety-like behavior on elevated plus maze [5, 9]: anxiolytic | effect on stress induced anxiety-related responses, elevated plus-maze ([5]; chronic BNST infusion, stressed rats): attenuated the stress induced anxiety-related responses | anxiety-like behavior on novel object test [6, 9]: anxiolytic | effect on stress induced anxiety-related responses, novel object test [6]: reverse the anxiogenic effect of stress | effect on stress induced anxiety-related responses, novel object test ([6]; listed as PACAP receptor antagonist): attenuated the stress induced anxiety-related responses | effect on body weight, non-stressed rats ([7]; chronic BNST infusion, no stress): no apparent effects; also recorded: gained weight steadily | effect on weight gain, stressed rats ([7]; continuous BNST infusion during seven day repeated variate stress): blocked the stress-induced changes in weight gain; also recorded: gained weight comparable to controls | Peptide loss ([8]; intact and amidated peptide radioimmunoassays): 4 %/day | final minipump concentration at the end of the study ([8]; start 75 μM): approximately 40 μM
